Experimental data taken from PubChem BioAssay (NCI).
Values joined by “and” are separate entries in the source; they are usually repeats but may differ in a detail not shown here. Identical values can stand only once.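 Grown in 96-well plates, cells were treated for 48 hours with each compound at five concentrations. Insufficient inhibition: endpoint recorded as highest concentration tested. GI50 is the concentration that inhibits growth by half. TGI marks complete inhibition of growth.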 Active and inactive are the calls of the source. No stated cut-off is given here; in the data, active means GI50 below about 0.43 µM; inactive means the rest.

Key:
Assay in all cases: inhibition of tumour cell growth, NCI panel, 48 h
[1] = test system: SNB-19 CNS
[2] = test system: DMS 273 small cell lung
[3] = test system: HL-60(TB) leukemia
[4] = test system: OVCAR-4 ovarian
[5] = test system: NCI-H23 lung
[6] = test system: EKVX NSCLC
[7] = test system: M19-MEL melanoma
[8] = test system: SK-MEL-5 melanoma
[9] = test system: HCT-15 colon
[10] = test system: SF-539 CNS
[11] = test system: CAKI-1 renal
[12] = test system: SF-295 CNS
[13] = test system: MALME-3M melanoma
[14] = test system: LOX IMVI melanoma
[15] = test system: SK-OV-3 ovarian
[16] = test system: RPMI-8226 leukemia
[17] = test system: SK-MEL-2 melanoma
[18] = test system: HOP-92 NSCLC
[19] = test system: NCI-H226 lung
[20] = test system: 786-0 renal
[21] = test system: OVCAR-8 ovarian
[22] = test system: DLD-1 colon
[23] = test system: IGROV1 ovarian
[24] = test system: SR leukemia
[25] = test system: HOP-18 NSCLC
[26] = test system: A549 NSCLC
[27] = test system: KM12 colon
[28] = test system: KM20L2 colon
[29] = test system: NCI-H522 lung
[30] = test system: TK-10 renal
[31] = test system: RXF 393 renal
[32] = test system: DMS 114 small cell lung
[33] = test system: HOP-62 NSCLC
[34] = test system: A498 renal
[35] = test system: UACC-62 melanoma
[36] = test system: HCT-116 colon
[37] = test system: XF 498 CNS
[38] = test system: COLO 205 colon
[39] = test system: SW-620 colon
[40] = test system: CCRF-CEM leukemia
[41] = test system: SF-268 CNS
[42] = test system: ACHN renal
[43] = test system: SK-MEL-28 melanoma
[44] = test system: OVCAR-3 ovarian
[45] = test system: SNB-78 CNS
[46] = test system: MOLT-4 leukemia
[47] = test system: SN12C renal
[48] = test system: M14 melanoma
[49] = test system: U251 CNS
[50] = test system: SNB-75 CNS
[51] = test system: UACC-257 melanoma
[52] = test system: K-562 leukemia
[53] = test system: UO-31 renal
[54] = test system: HCC-2998 colon
[55] = test system: NCI-H460 lung
[56] = test system: OVCAR-5 ovarian
[57] = test system: HT29 colon
[58] = test system: LXFL 529 NSCLC

## N/C(=N\N=C/c1c2ccccc2c(Cl)c2ccccc12)NO
[1]
  GI50: 7.87 µM
  TGI: 24.1 µM and 21.3 µM
[2]
  TGI: 3.89 µM
[3]
  TGI: 7.31 µM
[4]
  GI50: 2.62 µM
  TGI: 20.4 µM and 15 µM
[5]
  GI50: 6.51 µM
  TGI: 17.3 µM and 19.8 µM
[6]
  TGI: 15.5 µM and 13.5 µM
[7]
  GI50: 5.4 µM
  TGI: 19.6 µM and 18.6 µM
[8]
  GI50: 2.39 µM
  TGI: 16.6 µM and 6.5 µM
[9]
  GI50: 2.57 µM
  TGI: 19.4 µM and 6.72 µM
[10]
  GI50: 8.44 µM
  TGI: 21.3 µM and 21.8 µM
[11]
  TGI: 19.5 µM and 18.5 µM
[12]
  GI50: 13 µM
  TGI: 10.4 µM and 26.1 µM
[13]
  TGI: 19.4 µM
[14]
  TGI: 12.2 µM
[15]
  TGI: 10.5 µM
[16]
  TGI: 26.6 µM
  outcome: inactive
[17]
  GI50: 3.61 µM
  TGI: 23.3 µM and 16.9 µM
[18]
  GI50: 10.8 µM
  TGI: 12.3 µM and 28.7 µM
[19]
  TGI: 6.86 µM
[20]
  GI50: 5.63 µM
  TGI: 26.1 µM and 19.6 µM
[21]
  GI50: 1.99 µM
  TGI: 18.9 µM and 4.92 µM
[22]
  TGI: 20.1 µM and 19.1 µM
[23]
  TGI: 15.5 µM and 18.5 µM
[24]
  outcome: inactive
[25]
  TGI: 10.7 µM and 13.9 µM
[26]
  GI50: 2.25 µM
  TGI: 11 µM and 5.57 µM
[27]
  GI50: 4.01 µM
  TGI: 21.7 µM and 16 µM
[28]
  TGI: 4.81 µM
[29]
  GI50: 1.8 µM
  TGI: 14.2 µM and 3.98 µM
[30]
  TGI: 24.3 µM
[31]
  GI50: 4.61 µM
  TGI: 3.5 µM and 17.9 µM
[32]
  GI50: 2.79 µM
  TGI: 12.8 µM and 10.2 µM
[33]
  GI50: 5.71 µM
  TGI: 27.8 µM and 22.9 µM
[34]
  TGI: 29 µM
[35]
  GI50: 1.63 µM
  TGI: 4.39 µM and 3.3 µM
[36]
  GI50: 1.76 µM
  TGI: 13.8 µM and 3.36 µM
[37]
  GI50: 3.26 µM
  TGI: 30.5 µM and 17.1 µM
[38]
  GI50: 3.22 µM
  TGI: 14.1 µM and 14.7 µM
[39]
  GI50: 1.86 µM
  TGI: 18 µM and 3.68 µM
[40]
  GI50: 1.37 µM
  TGI: 13.7 µM
[41]
  GI50: 10.2 µM
  TGI: 26 µM and 27.4 µM
[42]
  GI50: 3.84 µM
  TGI: 15.8 µM and 13.8 µM
[43]
  TGI: 27.6 µM and 27.5 µM
[44]
  TGI: 14 µM
[45]
  TGI: 25.3 µM and 30.5 µM
[46]
  TGI: 37.2 µM
  outcome: inactive
[47]
  GI50: 2.21 µM
  TGI: 19.4 µM and 5.58 µM
[48]
  GI50: 2.65 µM
  TGI: 25.1 µM and 9.47 µM
[49]
  TGI: 20 µM and 20.6 µM
[50]
  TGI: 25.8 µM and 32 µM
[51]
  GI50: 4.25 µM
  TGI: 11.8 µM and 14.6 µM
[52]
  GI50: 3.17 µM
[53]
  GI50: 2.36 µM
  TGI: 22.5 µM and 7.44 µM
[54]
  GI50: 1.85 µM
  TGI: 13.7 µM and 3.97 µM
[55]
  GI50: 2.81 µM
  TGI: 11 µM and 9.94 µM
[56]
  GI50: 2.54 µM
  TGI: 10.2 µM and 8.81 µM
[57]
  GI50: 2.84 µM
  TGI: 15.6 µM and 8.47 µM

## COC(=O)C(=O)C(C(=O)C(=O)Nc1ccc(OC)cc1[N+](=O)[O-])c1nc2ccc([N+](=O)[O-])cc2[nH]c1=O (stereo unspecified)
[1]
  TGI: > 100 µM
[3]
  TGI: > 100 µM
[4]
  TGI: > 100 µM
[5]
  TGI: > 100 µM
[6]
  TGI: > 100 µM
[7]
  TGI: > 100 µM
[9]
  TGI: > 100 µM
[11]
  TGI: > 100 µM
[12]
  TGI: > 100 µM
[13]
  TGI: > 100 µM
[14]
  TGI: > 100 µM
[15]
  TGI: > 100 µM
[58]
  TGI: > 100 µM
[16]
  TGI: > 100 µM
[18]
  TGI: > 100 µM
[19]
  TGI: > 100 µM
[20]
  TGI: > 100 µM
[21]
  TGI: > 100 µM
[22]
  TGI: > 100 µM
[23]
  TGI: > 100 µM
[24]
  TGI: > 100 µM
[25]
  TGI: > 100 µM
[26]
  TGI: > 100 µM
[27]
  TGI: > 100 µM
[28]
  TGI: > 100 µM
[29]
  TGI: > 100 µM
[30]
  TGI: > 100 µM
[31]
  TGI: > 100 µM
[32]
  TGI: > 100 µM
[33]
  TGI: > 100 µM
[34]
  TGI: > 100 µM
[35]
  TGI: > 100 µM
[36]
  TGI: > 100 µM
[37]
  TGI: > 100 µM
[38]
  TGI: > 100 µM
[39]
  TGI: > 100 µM
[40]
  TGI: > 100 µM
[41]
  TGI: > 100 µM
[42]
  TGI: > 100 µM
[44]
  TGI: > 100 µM
[45]
  TGI: > 100 µM
[46]
  TGI: > 100 µM
[47]
  TGI: > 100 µM
[48]
  TGI: > 100 µM
[49]
  TGI: > 100 µM
[50]
  TGI: > 100 µM
[51]
  TGI: > 100 µM
[52]
  TGI: > 100 µM
[53]
  TGI: > 100 µM
[54]
  TGI: > 100 µM
[55]
  TGI: > 100 µM
[56]
  TGI: > 100 µM
[57]
  TGI: > 100 µM
